# Where “and” joins values, the source holds several entries; their conditions need not be identical. Identical values can stand only once. Toxic doses and inconclusive results are not listed.
# System: P388 leukemia ip, CD2F1 mice, survival T/C
# Test: NCI In Vivo Anticancer Drug Screen. Data for tumor model P388 Leukemia (intraperitoneal) in CD2F1 (CDF1) mice
# Settings: endpoint: median survival time, higher = longer survival
# Procedure, shortened: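 Mice carrying the transplanted tumor received test compound or vehicle. Survival was recorded in each group, and the value is the treated-group measurement divided by that of the vehicle-treated control group.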
# [1] = dose: 50.0 mg/kg/injection, schedule: Q01DX005 (ip), vehicle: saline with Tween-80
# [2] = dose: 100.0 mg/kg/injection, schedule: Q01DX005 (ip), vehicle: saline with Tween-80
# [3] = dose: 200.0 mg/kg/injection, schedule: Q01DX005 (ip), vehicle: saline with Tween-80
# [4] = dose: 50.0 mg/kg/injection, schedule: Q01DX009 (ip), vehicle: saline with Tween-80
# [5] = dose: 100.0 mg/kg/injection, schedule: Q01DX009 (ip), vehicle: saline with Tween-80
# [6] = dose: 200.0 mg/kg/injection, schedule: Q01DX009 (ip), vehicle: saline with Tween-80
# [7] = dose: 25.0 mg/kg/injection, schedule: Q01DX009 (ip), vehicle: saline with Tween-80
# [8] = dose: 60.0 mg/kg/injection, schedule: Q01DX005 (ip), vehicle: saline
# [9] = dose: 100.0 mg/kg/injection, schedule: Q04DX003 (ip), vehicle: saline
# [10] = dose: 200.0 mg/kg/injection, schedule: Q04DX003 (ip), vehicle: saline
# [11] = dose: 400.0 mg/kg/injection, schedule: Q04DX003 (ip), vehicle: saline
# [12] = dose: 50.0 mg/kg/injection, schedule: Q01DX005 (ip), vehicle: Klucel (hydroxypropylcellulose) (HPC)
# [13] = dose: 100.0 mg/kg/injection, schedule: Q01DX005 (ip), vehicle: Klucel (hydroxypropylcellulose) (HPC)
# [14] = dose: 200.0 mg/kg/injection, schedule: Q01DX005 (ip), vehicle: Klucel (hydroxypropylcellulose) (HPC)
# [15] = dose: 60.0 mg/kg/injection, schedule: Q01DX005 (ip), vehicle: saline with Tween-80
# [16] = dose: 120.0 mg/kg/injection, schedule: Q01DX005 (ip), vehicle: saline with Tween-80
# [17] = dose: 240.0 mg/kg/injection, schedule: Q01DX005 (ip), vehicle: saline with Tween-80
# [18] = dose: 100.0 mg/kg/injection, schedule: Q04DX002 (ip), vehicle: saline with Tween-80
# [19] = dose: 200.0 mg/kg/injection, schedule: Q04DX002 (ip), vehicle: saline with Tween-80
# [20] = dose: 400.0 mg/kg/injection, schedule: Q04DX002 (ip), vehicle: saline with Tween-80
# [21] = dose: 30.0 mg/kg/injection, schedule: Q01DX005 (ip), vehicle: saline with Tween-80
structure (smiles),measurement,setting,value
CC1=C(/C=C/C(C)=C/C=C/C(C)=C/C=C2/CCOC2=O)C(C)(C)CCC1,T/C,"dose: 50.0 mg/kg/injection, schedule: Q01DX001 (ip), vehicle: saline with Tween-80",96 % of control
same,T/C,"dose: 100.0 mg/kg/injection, schedule: Q01DX001 (ip), vehicle: saline with Tween-80",96 % of control
same,T/C,"dose: 200.0 mg/kg/injection, schedule: Q01DX001 (ip), vehicle: saline with Tween-80",100 % of control
O=C(/C=C/c1ccccc1)C1CCCCC1,T/C,"dose: 50.0 mg/kg/injection, schedule: Q01DX009 (ip), vehicle: Klucel (hydroxypropylcellulose) (HPC)",107 % of control
same,T/C,"dose: 100.0 mg/kg/injection, schedule: Q01DX009 (ip), vehicle: Klucel (hydroxypropylcellulose) (HPC)",107 % of control
same,T/C,"dose: 200.0 mg/kg/injection, schedule: Q01DX009 (ip), vehicle: Klucel (hydroxypropylcellulose) (HPC)",106 % of control
Cc1cn2ccccc2c1-c1ccccc1,T/C,[1],111 % of control
same,T/C,[2],108 % of control
same,T/C,[3],106 % of control
Cc1nc(N)c2nc(SC(C)C)c(N)nc2n1,T/C,[4],91 % of control
same,T/C,[5],91 % of control
same,T/C,[6],91 % of control
Oc1cc(CN2CCCC2)c(O)cc1CN1CCCC1,T/C,[7],103 % of control and 111 % of control
same,T/C,[4],103 % of control and 111 % of control
same,T/C,[5],110 % of control and 111 % of control
OCCCN1CCCCC1CO (stereo not given),T/C,[4],116 % of control
same,T/C,[6],150 % of control
CCCCCCCCCCCCCCCCCCOC(=O)C(N)CCCCN (stereo not given),T/C,"dose: 15.0 mg/kg/injection, schedule: Q01DX005 (ip), vehicle: saline",96 % of control
same,T/C,"dose: 30.0 mg/kg/injection, schedule: Q01DX005 (ip), vehicle: saline",110 % of control
same,T/C,[8],109 % of control and 111 % of control
CC(C)=CCCC(C)(OC1OC(COC2OCC(O)C(O)C2O)C(O)C(O)C1O)C1CCC2(C)C1C(O)CC1C3(C)CCC(OC4OC(CO)C(O)C(O)C4OC4OC(CO)C(O)C(O)C4O)C(C)(C)C3CCC12C (stereo not given),T/C,"dose: 18.75 mg/kg/injection, schedule: Q01DX009 (ip), vehicle: Klucel (hydroxypropylcellulose) (HPC)",98 % of control
same,T/C,"dose: 37.5 mg/kg/injection, schedule: Q01DX009 (ip), vehicle: Klucel (hydroxypropylcellulose) (HPC)",100 % of control
same,T/C,"dose: 75.0 mg/kg/injection, schedule: Q01DX009 (ip), vehicle: Klucel (hydroxypropylcellulose) (HPC)",92 % of control
same,T/C,"dose: 150.0 mg/kg/injection, schedule: Q01DX009 (ip), vehicle: Klucel (hydroxypropylcellulose) (HPC)",92 % of control
CC(=O)NC1C(OC(C)=O)OC(CS[As](C)C)C(OC(C)=O)C1OC(C)=O (stereo not given),T/C,[7],118 % of control
same,T/C,[4],111 % of control
CCCCCCCCCCCCCCC(Cl)C/[N+]([O-])=[N+](/[O-])CC(Cl)CCCCCCCCCCCCCC (stereo not given),T/C,[9],92 % of control
same,T/C,[10],92 % of control
same,T/C,[11],92 % of control
C/C(=N\N=C\N(C)S(=O)(=O)c1ccc(C)cc1)c1ccccc1,T/C,[12],104 % of control
same,T/C,[13],98 % of control
same,T/C,[14],95 % of control
COc1ccc2c(c1)C(=O)[C@]1(C)C3(C)OC(=O)C(c4ccccc43)[C@]21C (stereo not given in full),T/C,[15],110 % of control
same,T/C,[16],105 % of control
same,T/C,[17],98 % of control
CNc1nc(OC)nc2c1cnn2C1CCCCO1 (stereo not given),T/C,[18],97 % of control
same,T/C,[19],100 % of control
same,T/C,[20],94 % of control
c1ccc2c(c1)N=Nc1ccccc1OCCOCCOCCOCCO2,T/C,[18],106 % of control
same,T/C,[19],100 % of control
same,T/C,[20],99 % of control
c1cc(OCCOc2cccc3ocnc23)c2ncoc2c1,T/C,[15],98 % of control and 92 % of control
same,T/C,[16],99 % of control
same,T/C,[17],86 % of control and 89 % of control
CC1(C)OC(C(F)(F)F)(C(F)(F)F)c2cc(C(C)(C)C)cc(C(O)(C(F)(F)F)C(F)(F)F)c2S1,T/C,[21],120 % of control
same,T/C,[1],106 % of control
same,T/C,[15],113 % of control
same,T/C,[2],120 % of control
same,T/C,[16],112 % of control
same,T/C,[3],115 % of control
O=P(c1ccccc1)(c1ccccc1)c1ccccc1.O=P(c1ccccc1)(c1ccccc1)c1ccccc1.S=C=[N][Sn]([N]=C=S)([N]=C=S)[c]1ccccc1,T/C,[9],105 % of control
same,T/C,[10],108 % of control
same,T/C,[11],100 % of control
COc1cc(/C=C/C(=O)c2ccccc2O)cc(OC)c1OC,T/C,[1],97 % of control
same,T/C,[2],110 % of control
same,T/C,[3],97 % of control
COc1ccc(C2(c3ccccc3)c3ccccc3C(=O)c3ccccc32)cc1,T/C,[12],101 % of control
same,T/C,[13],103 % of control
same,T/C,[14],99 % of control
COc1cccc2c1C(=O)c1c(O)c(CCl)cc(OC)c1C2=O,T/C,"dose: 7.5 mg/kg/injection, schedule: Q01DX005 (ip), vehicle: saline with Tween-80",108 % of control
same,T/C,"dose: 15.0 mg/kg/injection, schedule: Q01DX005 (ip), vehicle: saline with Tween-80",117 % of control
same,T/C,[21],114 % of control
same,T/C,[15],101 % of control
CN(C)CC[Si](C)(C)N(C)C,T/C,[8],107 % of control
same,T/C,"dose: 120.0 mg/kg/injection, schedule: Q01DX005 (ip), vehicle: saline",102 % of control
NC1=NS(=O)(=O)Nc2nonc21,T/C,[4],96 % of control
same,T/C,[5],89 % of control
same,T/C,[6],89 % of control
N=C1OC(C(Cl)(Cl)Cl)N(c2cccc(F)c2)C1=O (stereo not given),T/C,"dose: 60.0 mg/kg/injection, schedule: Q01DX005 (ip), vehicle: Klucel + Tween-80",100 % of control
same,T/C,"dose: 120.0 mg/kg/injection, schedule: Q01DX005 (ip), vehicle: Klucel + Tween-80",100 % of control
same,T/C,"dose: 240.0 mg/kg/injection, schedule: Q01DX005 (ip), vehicle: Klucel + Tween-80",89 % of control
COc1cc2c(c(OC)c1OC)CCC/C2=N\NC(N)=S,T/C,"dose: 100.0 mg/kg/injection, schedule: Q04DX003 (ip), vehicle: Klucel (hydroxypropylcellulose) (HPC)",92 % of control
same,T/C,"dose: 200.0 mg/kg/injection, schedule: Q04DX003 (ip), vehicle: Klucel (hydroxypropylcellulose) (HPC)",92 % of control
same,T/C,"dose: 400.0 mg/kg/injection, schedule: Q04DX003 (ip), vehicle: Klucel (hydroxypropylcellulose) (HPC)",86 % of control
COC(=O)C1CC2CCCCC2CC1OC(C)=O (stereo not given),T/C,[7],96 % of control
same,T/C,[4],101 % of control and 111 % of control
same,T/C,[5],106 % of control and 112 % of control and 121 % of control
same,T/C,[6],99 % of control and 110 % of control and 121 % of control
COC1(Cl)CC1C#N (stereo not given),T/C,[4],117 % of control
same,T/C,[5],96 % of control
same,T/C,[6],105 % of control
O=C(OCC12OC1C(=O)C1OC1C2O)c1ccccc1 (stereo not given),T/C,"dose: 1.88 mg/kg/injection, schedule: Q04DX002 (ip), vehicle: saline with Tween-80",104 % of control
same,T/C,"dose: 3.75 mg/kg/injection, schedule: Q04DX002 (ip), vehicle: saline with Tween-80",105 % of control
same,T/C,"dose: 7.5 mg/kg/injection, schedule: Q04DX002 (ip), vehicle: saline with Tween-80",101 % of control
CC1(C)CC(=O)C2=C(C1)NC1=C(C(=O)CC(C)(C)C1)C2c1cccs1,T/C,[1],98 % of control
same,T/C,[2],98 % of control
same,T/C,[3],93 % of control
CN(C)C(=S)S(=O)(=O)CCCCCCS(=O)(=O)C(=S)N(C)C,T/C,"dose: 50.0 mg/kg/injection, schedule: Q04DX002 (ip), vehicle: Klucel (hydroxypropylcellulose) (HPC)",102 % of control and 103 % of control
same,T/C,"dose: 100.0 mg/kg/injection, schedule: Q04DX002 (ip), vehicle: Klucel (hydroxypropylcellulose) (HPC)",100 % of control and 110 % of control and 114 % of control
same,T/C,"dose: 200.0 mg/kg/injection, schedule: Q04DX002 (ip), vehicle: Klucel (hydroxypropylcellulose) (HPC)",107 % of control and 111 % of control and 123 % of control
same,T/C,"dose: 300.0 mg/kg/injection, schedule: Q04DX002 (ip), vehicle: Klucel (hydroxypropylcellulose) (HPC)",107 % of control and 109 % of control
C=C1C(=O)C23C(OC(=O)CCCCCCCCC)C1CCC2C12COC3(O)C(O)C1C(C)(C)CCC2O (stereo not given),T/C,"dose: 3.75 mg/kg/injection, schedule: Q01DX009 (ip), vehicle: saline with Tween-80",103 % of control
same,T/C,"dose: 7.5 mg/kg/injection, schedule: Q01DX009 (ip), vehicle: saline with Tween-80",98 % of control
same,T/C,"dose: 15.0 mg/kg/injection, schedule: Q01DX009 (ip), vehicle: saline with Tween-80",96 % of control
same,T/C,"dose: 30.0 mg/kg/injection, schedule: Q01DX009 (ip), vehicle: saline with Tween-80",106 % of control

# Source: PubChem BioAssay AID330 (DTP/NCI, 2004)
